# Target: Integrin alpha-IIb/beta-3 (Homo sapiens)
# Assay: Antagonist activity against integrin alpha2bbeta3 open form in human platelet rich plasma assessed as inhibition of ADP-induced platelet aggregation
row,IC50,Compound
1,25 nM,O=C(CCNC(=O)c1ccc2c(c1)CNCC2)NC[C@@H](NS(=O)(=O)c1ccccc1)C(=O)O
2,6.2 nM,O=C(CCNC(=O)c1ccc2c(c1)CNCC2)NC[C@H](NS(=O)(=O)c1ccccc1)C(=O)O
3,670 nM,CCCCS(=O)(=O)N[C@H](CNC(=O)CCNC(=O)c1ccc2c(c1)CNCC2)C(=O)O
4,320 nM,CCCCS(=O)(=O)N[C@@H](CNC(=O)CCNC(=O)c1ccc2c(c1)CNCC2)C(=O)O

# Target: Integrin alpha-IIb/beta-3 (Homo sapiens)
# Assay: Antagonist activity against integrin alpha2bbeta3 closed form in human platelet rich plasma assessed as inhibition of ADP-induced platelet aggregation
row,IC50,Compound
1,100 nM,O=C(Nc1ccc2nc(N3CCNCC3)[nH]c(=O)c2c1)C1CCNCC1
2,11 nM,NCCCC(=O)Nc1ccc2nc(N3CCNCC3)[nH]c(=O)c2c1
3,150 nM,NCCC(=O)Nc1ccc2nc(N3CCNCC3)[nH]c(=O)c2c1

# Reference: BindingDB's records for doi:10.1021/acs.jmedchem.5b00865 (A.V. Bogatsky Physico-Chemical Institute of The National …, 2015)
